Source: ChEMBL document CHEMBL4330055, “Development of Inhibitors of the Programmed Cell Death-1/Programmed Cell Death-Ligand 1 Signaling Pathway” (J Med Chem, 2019)
Where a SMILES comes first, the peptide text is derived from it. Bridges are numbered along the chain shown (N, C = ends).

Each compound was assayed against Programmed cell death 1 ligand 1 (Mus musculus) (UniProt Q9EP73) (assay: Inhibition of PDL1 in C57BL6 mouse splenocytes assessed as protection against ant-CD3/CD28-stimulated cell proliferation at 100 nM after 4 hrs by CFSE-based FACS analysis relative to control).
Programmed cell death 1 ligand 1 (Mus musculus), sequence (Q9EP73 whole entry): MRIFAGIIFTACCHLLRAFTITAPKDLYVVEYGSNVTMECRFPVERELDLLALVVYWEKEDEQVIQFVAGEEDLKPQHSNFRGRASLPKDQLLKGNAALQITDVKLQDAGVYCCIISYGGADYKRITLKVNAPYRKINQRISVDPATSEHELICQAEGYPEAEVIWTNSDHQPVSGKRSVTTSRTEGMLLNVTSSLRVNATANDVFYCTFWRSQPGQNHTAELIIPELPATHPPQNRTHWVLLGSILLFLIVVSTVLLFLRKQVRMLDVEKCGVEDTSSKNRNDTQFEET
With `NC(=O)C[C@H](NC(=O)[C@@H]1C[C@H](O)CN1)c1nc(N2CCCC2)no1` the inhibition was 91%.
`NCCCC[C@H](NC(=O)N[C@@H](CC(N)=O)C(=O)NNC(=O)[C@@H](N)CO)C(=O)O` showed an inhibition of 87%.
`C[C@@H](O)[C@@H]1NC(=O)N[C@@H](C(N)=O)C(=O)NNC(=O)[C@@H](CO)NC(=O)COCCOCCNC1=O` gave an inhibition of 95%.
Work on `C[C@@H](O)[C@H](N)c1nnc([C@H](CCC(N)=O)NC(=O)N[C@@H](CO)C(=O)O)o1` yielded an inhibition of 92%.
Compound `C[C@@H](O)[C@@H](NC(=O)N[C@@H](CC(N)=O)c1nc([C@@H](N)CO)no1)C(=O)O` has an inhibition of 97%.
`COCCNC(=O)CC[C@H](NS(=O)(=O)C1CC1)c1nnc(-c2ccccc2OC)o1` gave an inhibition of 97%.
Compound `C[C@@H](O)[C@H](N)c1noc([C@H](Cc2ccc(O)cc2)NC(=O)N2CCC[C@H]2C(=O)O)n1` has an inhibition of 99%.
`C[C@@H](O)C(NC(=O)[C@H](CCC(=O)O)NC(=O)[C@@H](N)CO)C(=O)N[C@H](CO)C(=O)N[C@H](CCCCN)C(=O)N[C@H](CO)CN[C@H](Cc1ccccc1)C(N)=O` (single isomer, unassigned) gave an inhibition of 81%.
In the case of `C[C@@H](O)[C@@H]1C(=O)N[C@H](CO)C(=O)N[C@H](C(=O)N[C@@H](CO)C(=O)N[C@@H](Cc2ccccc2)C(N)=O)CCCCNC(=O)CC[C@H](NC(=O)[C@@H](N)CO)C(=O)N1C`, the inhibition is reported as 82%.
`C[C@@H](O)[C@@H]1NC(=O)COCCOCCNC(=O)[C@@H](CO)NC(=O)N[C@H](C(N)=O)C(=O)NNC1=O` gave an inhibition of 94%.

The compounds below were run against T1, V-type immunoglobulin domain-containing suppressor of T-cell activation (Homo sapiens) (UniProt Q9H7M9) (assay: Inhibition of VISTA signaling in human PBMC assessed as IFNgamma release at 100 nM after 30 mins by ELISA).
T1 sequence (whole entry): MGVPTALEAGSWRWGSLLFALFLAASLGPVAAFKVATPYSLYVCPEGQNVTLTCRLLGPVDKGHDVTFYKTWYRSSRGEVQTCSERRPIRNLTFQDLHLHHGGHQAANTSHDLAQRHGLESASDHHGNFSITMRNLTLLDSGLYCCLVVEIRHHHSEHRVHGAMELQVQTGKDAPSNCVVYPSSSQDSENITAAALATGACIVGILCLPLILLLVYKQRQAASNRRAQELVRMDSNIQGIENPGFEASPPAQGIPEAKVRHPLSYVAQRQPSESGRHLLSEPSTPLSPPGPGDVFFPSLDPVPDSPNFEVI
Work on `C[C@@H](O)[C@H](NC(=O)N[C@@H](CC(N)=O)c1nc([C@@H](N)Cc2ccccc2)no1)C(=O)O` yielded an inhibition of 99%.
`C[C@@H](O)[C@@H](NC(=O)N[C@@H](CC(N)=O)c1nc([C@@H](N)CO)no1)C(=O)O` gave an inhibition of over 70%.

These compounds were tested against T2, Programmed cell death protein 1/Programmed cell death 1 ligand 1 (Homo sapiens, UniProt Q15116+Q9NZQ7) (assay: Inhibition of PD1/PDL1 (unknown origin) at 500 uM after 15 mins by HTRF assay relative to control).
T2 sequence (Q15116 whole entry): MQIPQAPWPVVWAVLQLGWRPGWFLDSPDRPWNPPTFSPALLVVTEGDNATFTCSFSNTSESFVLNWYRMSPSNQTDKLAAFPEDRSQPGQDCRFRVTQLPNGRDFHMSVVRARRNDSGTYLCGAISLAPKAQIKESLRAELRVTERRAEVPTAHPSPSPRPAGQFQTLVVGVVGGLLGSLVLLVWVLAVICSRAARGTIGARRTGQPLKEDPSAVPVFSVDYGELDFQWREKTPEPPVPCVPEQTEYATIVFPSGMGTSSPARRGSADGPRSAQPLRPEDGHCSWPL
T2 sequence (Q9NZQ7 whole entry): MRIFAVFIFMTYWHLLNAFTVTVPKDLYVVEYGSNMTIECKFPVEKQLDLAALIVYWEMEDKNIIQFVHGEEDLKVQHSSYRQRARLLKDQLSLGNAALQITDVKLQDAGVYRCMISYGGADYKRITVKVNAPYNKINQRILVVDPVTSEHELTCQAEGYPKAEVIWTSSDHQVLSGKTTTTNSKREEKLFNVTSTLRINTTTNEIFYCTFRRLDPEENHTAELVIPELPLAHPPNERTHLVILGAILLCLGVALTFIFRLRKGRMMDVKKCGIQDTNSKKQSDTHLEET
Assay type: protein-complex assay
`CN(C)CCOc1ccc([N+](=O)[O-])c(OC(=O)N(C)C)c1` was tested, and the inhibition was 43%.

Each compound was assayed against T3, Programmed cell death 1 ligand 1 (Homo sapiens, UniProt Q9NZQ7) (assay: Binding affinity to biotinylated PDL1 (unknown origin) expressed in Escherichia coli OmpX membrane after 45 mins by SAPE-fluorescence based flow cytometry).
T3 sequence (Q9NZQ7 whole entry): as above
Assay type: cell membranes
Work on `C[C@H](NC(=O)[C@H](Cc1ccc(O)cc1)NC(=O)[C@H](CCC(N)=O)NC(=O)CNC(=O)[C@@H](N)CO)C(=O)N[C@@H](CO)C(=O)N[C@@H](Cc1ccc(O)cc1)C(=O)N[C@@H](Cc1cnc[nH]1)C(=O)N[C@@H](CS)C(=O)N[C@@H](Cc1c[nH]c2ccccc12)C(=O)N[C@@H](CS)C(=O)N[C@@H](Cc1c[nH]c2ccccc12)C(=O)N[C@@H](CCCNC(=N)N)C(=O)N[C@@H](CC(=O)O)C(=O)N1CCC[C@H]1C(=O)NCC(=O)N[C@@H](CCCNC(=N)N)C(=O)N[C@@H](CO)C(=O)NCC(=O)NCC(=O)N[C@@H](CO)C(=O)N[C@@H](CCCCN)C(=O)O` (H-SGQYASYHCWCWRDPGRSGGSK-OH) yielded a Kd of 94 nM.

These compounds were tested against T2, Programmed cell death protein 1/Programmed cell death 1 ligand 1 (assay: Inhibition of PD1/PDL1 interaction in human jurkat cells co-expressing TCR promoter assessed as TCR activation by luciferase reporter gene assay).
Assay type: cell-based
Work on `CC[C@H](C)[C@@H]1NC(=O)[C@H](CC(C)C)NC(=O)[C@H](Cc2ccccc2)NC(=O)CSC[C@@H](C(=O)NCC(N)=O)NC(=O)[C@H](CCCNC(=N)N)NC(=O)[C@H](Cc2ccccc2)NC(=O)[C@H](C(C)C)NC(=O)[C@H](CCCNC(=N)N)NC(=O)[C@H](CC(=O)O)NC(=O)[C@H](CCCNC(=N)N)NC(=O)[C@H]([C@@H](C)CC)NC(=O)[C@H](C(C)C)NC1=O` ({CH2CO}-FLIVIRDRVFRCG-NH2; thioether N-12) yielded an EC50 of 6300 nM.

Each compound was assayed against T2, Programmed cell death protein 1/Programmed cell death 1 ligand 1 (assay: Inhibition of recombinant human PD1 (25 to 167 residues)/human PDL1 (19 to 238 residues) interaction after 40 mins by HTRF assay).
Assay type: protein-complex assay
With `N#Cc1c(-c2ccc3c(c2)OCCO3)cccc1N1CCC(NC2CCCOC2)CC1` (configuration not stated) the IC50 was at most 100 nM.
`Cc1c(-c2ccccc2)cccc1-c1cc2ccc(CNCCO)cn2n1` showed an IC50 of at most 100 nM.
For `COc1cc2oc(-c3cccc(-c4ccccc4)c3C)nc2cc1CNCCO`, the IC50 was at most 100 nM.
`Cc1c(-c2ccccc2)cccc1-n1cc2c(n1)CNCC2` gave an IC50 of at most 100 nM.
Work on `N#Cc1c(NC(=O)c2nc3c(s2)CNCC3)cccc1-c1ccc2c(c1)OCC2` yielded an IC50 of at most 100 nM.
`Cc1cc(C(=O)Nc2cccc(-c3ccccc3)c2C)ncc1CNCCO` showed an IC50 of at most 100 nM.
Compound `N#Cc1c(Nc2nccc3cc(CNCCO)cnc23)cccc1C1=CCCCC1` has an IC50 of at most 100 nM.

The compounds below were run against T3, Programmed cell death 1 ligand 1 (assay: Binding affinity to Fc-labeled human PDL1 expressed in Escherichia coli by SPR spectroscopy).
With H-MRNRERYPKPYY-OH the Kd was 22000 nM.
`C[C@@H](O)[C@H](NC(=O)[C@@H]1CCCN1C(=O)[C@H](CCCCN)NC(=O)[C@H](CO)NC(=O)[C@H](Cc1ccc(O)cc1)NC(=O)[C@@H](N)CC(N)=O)C(=O)N[C@@H](CC(=O)O)C(=O)N[C@@H](CCCNC(=N)N)C(=O)N[C@@H](CCC(N)=O)C(=O)N[C@@H](Cc1ccc(O)cc1)C(=O)N[C@@H](Cc1cnc[nH]1)C(=O)N[C@@H](Cc1ccccc1)C(=O)O` gave a Kd of 510 nM.
Work on H-KHAHHTHNLRLP-OH yielded a Kd of 1130 nM.

The compounds below were run against T2, Programmed cell death protein 1/Programmed cell death 1 ligand 1 (assay: Inhibition of PD1/PDL1 (unknown origin) interaction at 10 uM after 15 mins by HTRF assay relative to control).
Assay type: protein-complex assay
In the case of `COc1ccc(Nc2cc(C(=O)Nc3ccc(Oc4ccccc4)cc3)ccn2)cc1`, the inhibition is reported as 36%.

These compounds were tested against T2, Programmed cell death protein 1/Programmed cell death 1 ligand 1 (assay: Inhibition of PD1/PDL1 (unknown origin) interaction by HTRF assay).
Assay type: protein-complex assay
`Cc1c(/C=C/c2ncc(CNC(CO)C(=O)O)cc2C(F)(F)F)cccc1-c1ccc2c(c1)OCCO2` (configuration not stated) gave an IC50 of 36 nM.
